Data: patent US11944624B2, “Peptide and small molecule agonists of EphA and their uses” (CASE WESTERN RESERVE UNIVERSITY, priority 2017, dated 2024)
“Also recorded” adds a separate entry of the source.

Experiments:
[1] = target: T1, EphA2 (Homo sapiens, UniProt P29317); assay: EphA2 activation in MDA-MB-231-A2 cells (phosphorylated/total EphA2, Example 2); format: cell-based; design: expressed in transfected cells; host or cells: MDA-MB-231 (MDA-231-A2 / MDA-MB-231-A2), puromycin selected; conditions: MDA-MB-231-A2 cells, 2, 10 and 50 μM, 30 min
T1 sequence (P29317 24-976): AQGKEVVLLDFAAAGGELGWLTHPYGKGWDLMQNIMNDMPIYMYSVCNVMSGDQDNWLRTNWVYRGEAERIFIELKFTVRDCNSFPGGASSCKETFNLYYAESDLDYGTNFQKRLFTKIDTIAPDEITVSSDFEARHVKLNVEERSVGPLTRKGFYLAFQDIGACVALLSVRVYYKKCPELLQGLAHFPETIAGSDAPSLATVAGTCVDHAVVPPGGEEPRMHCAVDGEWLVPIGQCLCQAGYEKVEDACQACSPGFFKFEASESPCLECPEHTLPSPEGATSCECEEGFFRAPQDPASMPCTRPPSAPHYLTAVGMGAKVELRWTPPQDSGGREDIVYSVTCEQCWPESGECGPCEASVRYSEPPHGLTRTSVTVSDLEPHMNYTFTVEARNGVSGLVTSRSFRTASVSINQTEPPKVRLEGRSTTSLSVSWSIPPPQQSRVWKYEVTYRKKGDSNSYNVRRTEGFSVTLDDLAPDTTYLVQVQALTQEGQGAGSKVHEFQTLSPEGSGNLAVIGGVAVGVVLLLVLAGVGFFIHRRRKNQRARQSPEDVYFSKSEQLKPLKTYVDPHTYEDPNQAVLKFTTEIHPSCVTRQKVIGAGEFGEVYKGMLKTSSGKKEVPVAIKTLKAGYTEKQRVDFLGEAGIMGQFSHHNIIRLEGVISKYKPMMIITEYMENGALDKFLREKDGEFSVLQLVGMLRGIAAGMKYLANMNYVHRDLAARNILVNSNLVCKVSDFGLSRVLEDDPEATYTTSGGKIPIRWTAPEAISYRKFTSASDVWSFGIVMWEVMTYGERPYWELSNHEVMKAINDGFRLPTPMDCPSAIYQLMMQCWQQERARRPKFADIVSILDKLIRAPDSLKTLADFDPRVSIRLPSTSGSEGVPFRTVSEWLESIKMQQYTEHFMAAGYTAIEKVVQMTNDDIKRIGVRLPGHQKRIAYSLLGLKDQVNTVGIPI
Experimental: To evaluate the compounds, we utilized a MDA-MB-231 breast cancer cell line which overexpresses EphA2 receptor (MDA-MB-231-A2). The ratio of phosphorylated EphA2 protein over total EphA2 protein was measured after treatment with the various compounds as the readout for receptor activation. All the compounds were examined with doses of 2, 10, and 50 μM, and we used 50 μM Doxazosin and 0.5% DMSO as the positive and negative control, respectively (FIG. 27). […] Inspired by the dimer design, we also generated dimer structure based on the piperazine ring as the core as illustrated by compounds 25 and 26.
MDA-MB-231 EphA2-overexpressing cells were plated in 12-well dishes at a density of 100,000 cells/well and grown for 24 hours prior to stimulation with appropriate compounds and ephrins for 30 min and 10 min, respectively. Compounds were prepared in DMSO at 200 times the final concentrations and 0.5% DMSO was used as vehicle control. Following treatment, cells were washed and lysed in modified RIPA Buffer (20 mM Tris-HCl pH 7.4, 20 mM NaF, 150 mM NaCl, 10% glycerol, 0.1% SDS, 0.5% DCA, 2 mM EDTA, 1% Triton X-100, 2 mM Na3VO4, and protease inhibitors, including 1 mM phenylmethylsulphonyl fluoride, and 2 μg/ml each of aprotinin and leupeptin) for 20 min, followed by immunoprecipitation. For immunoprecipitation, lysates were combined with 10 μg of ephrin-A1-Fc and 10-15 μl of Gamma-Bind Protein G beads (GE Healthcare Bioscience, Pittsburgh, PA) and rotated for 3 hours at 4° C. 10 μg of human unconjugated Fc was used as a negative control. Beads were pelleted at 9,000 rpm for 2 min at 4° C., and washed twice with 1 ml of IP Wash Buffer (20 mM Tris, pH 7.4, 10% glycerol, 50 mM NaCl, 0.2% Triton X-100, 0.5 mM Na3VO4, 0.5 mM PMSF). All wash buffer was removed and beads were resuspended in 25 μl of 4× LDS Loading Buffer (Thermo Fisher, Grand Island, NY) with 4 μl of 10× Bolt Sample Reducing Agent (Thermo Fisher), followed by Western Blotting. Samples were boiled 5 min and run on 4-12% Bis-Tris Plus gels (Thermo Fisher), followed by transfer to Immobilon-P PVDF membranes (Millipore, Billerica, MA). Membranes were blocked 1 hr at room temperature in 3% BSA in TBS containing 0.05% Tween-20 (TBS-T) followed by overnight incubation with pEphA/B (1:500) and EphA2 (Santa Cruz) (1:1000) primary antibodies. Membranes were washed in TBS-T and incubated with goat anti-rabbit-HRP (1:5000) secondary antibody 1 hr at room temperature, followed by washing and developing with Luminol Reagent (Santa Cruz). Band intensities were quantified using Quantity One software (Bio-Rad, Hercules, CA).

[2] = test system: MDA-MB-231 cells; assay: Clonogenic (colony formation) assay; format: cell-based; conditions: 0.08-10 μM, 14 days
Experimental: MDA-MB-231 cells (1000 cells/well) were seeded in 12-well plates and cultured for 24 h, followed by treatment with various concentrations of the Doxazosin analogs (0, 0.08, 0.4, 2 and 10 μM) in 0.5% DMSO for 14 days. After washing with PBS, colonies were fixed in 4% paraformaldehyde in PBS, washed in 20% methanol, and stained with 0.5% crystal violet.

[3] = target: T2, rat α1a adrenergic receptor (Rattus norvegicus, UniProt P43140); assay: Adrenoceptor binding, [3H]-prazosin competition; conditions: [3H]-prazosin 0.25 nM, triplicate, mean±SD; read-out: IC50, α-adrenoceptor binding
T2 construct: Eurofins Panlabs Taiwan, Ltd. (contract assay)
T2 sequence (P43140 1-466): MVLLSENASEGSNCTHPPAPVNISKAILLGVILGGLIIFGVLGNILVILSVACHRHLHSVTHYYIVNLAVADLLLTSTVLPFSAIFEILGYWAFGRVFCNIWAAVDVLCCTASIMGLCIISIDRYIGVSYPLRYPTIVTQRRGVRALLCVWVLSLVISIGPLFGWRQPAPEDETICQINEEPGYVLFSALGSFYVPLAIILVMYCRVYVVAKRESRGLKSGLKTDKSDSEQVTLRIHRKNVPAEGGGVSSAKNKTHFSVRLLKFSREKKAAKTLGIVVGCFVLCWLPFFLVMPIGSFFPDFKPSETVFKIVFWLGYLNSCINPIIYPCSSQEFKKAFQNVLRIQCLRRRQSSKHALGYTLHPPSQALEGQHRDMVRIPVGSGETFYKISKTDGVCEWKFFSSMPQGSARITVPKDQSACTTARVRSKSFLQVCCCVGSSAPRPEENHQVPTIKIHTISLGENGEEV
Experimental: Analysis of Doxazosin and analog binding to rat α1a adrenergic receptor was performed by Eurofins Panlabs Taiwan, Ltd. (Taiwan). [^3H]-prazosin at 0.25 nM was used as the radioligand. […] Non-specific binding was defined by use of 10 μM phentolamine. Incubations were terminated by vacuum filtration over 0.1% PEI pretreated glass fiber filters and filters were washed for 10 s with ice cold 0.1M NaCl and radioactivity retained on the filters was determined by liquid scintillation spectrometry. IC50 values were determined by a non-linear regression analysis using GraphPad Prism v.5 (GraphPad).

[4] = target: T1, EphA2; assay: EphA2 internalization in MDA-MB-231 cells (immunofluorescence, Example 2); format: cell-based; design: expressed in transfected cells; host or cells: MDA-MB-231 (MDA-231-A2 / MDA-MB-231-A2), puromycin selected; conditions: 1 hr, doses 0.4, 2, 10, 50 μM
Experimental: This was performed using the MDA-MB-231 cell line. This cell line spreads well in culture, thereby facilitating immunofluorescence detection of cell surface and intracellular EphA2 (FIG. 28). […] MDA-MB-231 cells were plated in 24-well plates on 10 mm square coverslips coated with 10 μg/ml fibronectin and incubated 24-48 hrs before treatment with 50 μM Doxazosin and various doses of compound 27 (0.4, 2, 10, 50 μM) in 0.5% DMSO for 1 hr. As another positive control, cells were treated with 2 μg/ml ephrin-A1-Fc. Cells were then washed with PBS and fixed with 4% paraformaldehyde (Electron Microscopy Sciences, Hatfield, PA) on ice for 10 min, followed by washing and permeabilization with 0.4% NP-40 for 10 min on ice. […] Cells were then incubated in primary mouse EphA2 antibody (D7, 1:100) in 0.1% BSA/PBS for 1 hr at room temperature, washed in PBS and BSA/PBS, followed by incubation in secondary donkey anti-mouse Alexa Fluor 488 antibody (1:300) in BSA/PBS for 30 min at room temperature. Cells were washed in PBS and BSA/PBS, followed by mounting in DAPI Mounting Medium (Electron Microscopy Sciences). Images were taken with a Leica microscope.

| Compound | EphA2 activation compared to 50 μM Doxazosin [1] | IC50 [3] | concentration at which EphA2 internalization happened [4] | inhibition of colony formation [2] |
| --- | --- | --- | --- | --- |
| COc1cc2nc(N3CCN(C(=O)c4ccc5ccccc5c4)CC3)nc(N)c2cc1OC [Compound 1, (4-(4-amino-6,7-dimethoxyquinazolin-2-yl)piperazin-1-yl)(naphthalen-2-yl)methanone] | higher activity than compound 3; also recorded: did not show a much higher activity than the lead compound Doxazosin |  |  |  |
| COc1cc2nc(N3CCN(C(=O)c4cccc(-c5ccccc5)c4)CC3)nc(N)c2cc1OC [Compound 2, [1,1′-biphenyl]-3-yl(4-(4-amino-6,7-dimethoxyquinazolin-2-yl)piperazin-1-yl)methanone] | higher activity than compound 3; also recorded: did not show a much higher activity than the lead compound Doxazosin |  |  |  |
| COc1cc2nc(N3CCN(C(=O)Cc4ccc(OCc5ccccc5)cc4)CC3)nc(N)c2cc1OC [Compound 24, 1-(4-(4-amino-6,7-dimethoxyquinazolin-2-yl)piperazin-1-yl)-2-(4-(benzyloxy)phenyl)ethanone] | potent EphA2 activation; also recorded: improved EphA2 activation compared to Doxazosin | 4.28 ± 3.1 nM |  | slightly weaker activity compared to compound 27; also recorded: inhibit the colony formation |
| COc1ccc(C(=O)N2CCN(C(=O)c3ccc(OC)cc3)CC2)cc1 [Compound 25, piperazine-1,4-diylbis((4-methoxyphenyl)methanone)] | significantly decreased activity |  |  |  |
| CSc1ccc(C(=O)N2CCN(C(=O)c3ccc(SC)cc3)CC2)cc1 [Compound 26, piperazine-1,4-diylbis((4-(methylthio)phenyl)methanone)] | significantly decreased activity |  |  |  |
| COc1cc2nc(N3CCN(C(=O)CCCCCCCCCCC(=O)N4CCN(c5nc(N)c6cc(OC)c(OC)cc6n5)CC4)CC3)nc(N)c2cc1OC [Compound 27, 1,12-bis(4-(4-amino-6,7-dimethoxyquinazolin-2-yl)piperazin-1-yl)dodecane-1,12-dione] | superior activity within the new compound pool; also recorded: significantly increased activity compared to Doxazosin; also recorded: the most active one in the SAR study; also recorded: improved EphA2 activation compared to Doxazosin | 2.5 ± 1.62 nM | 0.4 µM | inhibited colony formation even at nanomolar concentrations; also recorded: inhibit the colony formation; also recorded: inhibits cancer cell colony formation |
| COc1cc2nc(N3CCN(C(=O)CCCCC(=O)N4CCN(c5nc(N)c6cc(OC)c(OC)cc6n5)CC4)CC3)nc(N)c2cc1OC [Compound 28, 1,6-bis(4-(4-amino-6,7-dimethoxyquinazolin-2-yl)piperazin-1-yl)hexane-1,6-dione] | does not show any activity to activate EphA2 |  |  |  |
| COc1cc2nc(N3CCN(C(=O)C4COc5ccccc5O4)CC3)nc(NC(C)=O)c2cc1OC (centres unmarked) [Compound 29, N-(2-(4-(2,3-dihydrobenzo[b][1,4]dioxine-2-carbonyl)piperazin-1-yl)-6,7-dimethoxyquinazolin-4-yl)acetamide] | significantly diminishes the activity |  |  |  |
| COc1cc2nc(N3CCN(C(=O)Cc4ccc(OCc5ccccc5)cc4)CC3)nc(NC(C)=O)c2cc1OC [Compound 30, N-(2-(4-(2-(4-(benzyloxy)phenyl)acetyl)piperazin-1-yl)-6,7-dimethoxyquinazolin-4-yl)acetamide] | significantly diminishes the activity |  |  |  |
| COc1cc2nc(N3CCN(C(=O)Cc4ccc(OCc5ccccc5)cc4)CC3)nc(N3CCCCC3)c2cc1OC [Compound 31, 2-(4-(benzyloxy)phenyl)-1-(4-(6,7-dimethoxy-4-(piperidin-1-yl)quinazolin-2-yl)piperazin-1-yl)ethanone] | harm the EphA2 activation |  |  |  |
| COc1cc2nc(N3CCN(C(=O)Cc4ccc(OCc5ccccc5)cc4)CC3)nc(N3CCCC3)c2cc1OC [Compound 32, 2-(4-(benzyloxy)phenyl)-1-(4-(6,7-dimethoxy-4-(pyrrolidin-1-yl)quinazolin-2-yl)piperazin-1-yl)ethanone] | harm the EphA2 activation |  |  |  |
| CCOc1cc2nc(N3CCN(C(=O)Cc4ccc(OCc5ccccc5)cc4)CC3)nc(N)c2cc1OCC [Compound 33, 1-(4-(4-amino-6,7-diethoxyquinazolin-2-yl)piperazin-1-yl)-2-(4-(benzyloxy)phenyl)ethanone] | diminishes the activity |  |  |  |

The next lines start with results.

| EphA2 activation compared to 50 μM Doxazosin [1] | IC50 [3] | concentration at which EphA2 internalization happened [4] | Compound | inhibition of colony formation [2] |
| --- | --- | --- | --- | --- |
| decreases the activity |  |  | COc1cc2nc(N3CCN(C(=O)c4ccc(Cl)c([N+](=O)[O-])c4)CC3)nc(N)c2cc1OC [Compound 13, (4-(4-amino-6,7-dimethoxyquinazolin-2-yl)piperazin-1-yl)(4-chloro-3-nitrophenyl)methanone] |  |
| slightly decreased activity |  |  | CCCCCC(=O)N1CCN(c2nc(N)c3cc(OC)c(OC)cc3n2)CC1 [Compound 23, 1-(4-(4-amino-6,7-dimethoxyquinazolin-2-yl)piperazin-1-yl)hexan-1-one] | moderate activity to inhibit the colony formation |
